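All cell lines were grown in 96-well plates and treated with compound for 48 hours. Here, GI50 denotes the concentration required for 50% inhibition of growth.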 Active and inactive are the calls of the source. Cut-off read from the data, not from the text of the source: active = GI50 up to about 1.1 µM and inactive = higher.

Results on 2 molecules are retold here after ChEMBL document CHEMBL1201862, “PubChem BioAssay data set” (2004).

Common to all, as to experiment: NCI anticancer screen, dose series, 48 h
Test [1] has as its system NCI-H226.
Test [2] relates to MDA-MB-231.
The test system of test [3] is U-251.
The subject of test [4] is SW-620.
Test [5] relates to HOP-62.
Test [6] concerns HCT-116.
Test [7] deals with NCI-H23.
Test [8] has as its system M14.
The subject of test [9] is SR.
In test [10] the test system is COLO 205.
In test [11] the test system is OVCAR-4.
In test [12] the test system is ACHN.
The subject of test [13] is Hs-578T.
For test [14], the system named is OVCAR-8.
Test [15] relates to UACC-257.
Test [16] concerns OVCAR-3.
Test [17] concerns MDA-MB-435.
The test system of test [18] is A498.
In test [19] the test system is Malme-3M.
For test [20], the system named is MDA-N.

Turning to `COc1ccc(/N=C2\C(=S)N(c3ccc(OC)cc3)/C(=N/S(=O)(=O)c3ccccc3)N2c2ccccc2)cc1`, the GI50 in [1] was 16 µM (inactive); in test [2], 4.79 µM (inactive); in test [3], 8.53 µM (inactive); in test [4], 2.62 µM (inactive); in test [5] it was > 35.3 µM (inactive); in test [6] it was 6.64 µM (inactive). For the same molecule, the GI50 in test [7] was 10.2 µM (inactive); in test [8], 4.9 µM (inactive); in test [9] it was 0.889 µM (active); in [10], 8.81 µM (inactive); in [11], 9.25 µM (inactive); in [12], 8.85 µM (inactive). Also, the GI50 is 17.9 µM (inactive) in test [13]; 3.95 µM (inactive) in [14]; 13 µM (inactive) in test [15]; 5.5 µM (inactive) in [16]; 7.87 µM (inactive) in [17]; > 100 µM (inactive) in test [18]. The GI50 in test [19] is 15.1 µM (inactive); in test [20], 3.93 µM (inactive).
Regarding `O=C(CN1CCN(c2ccccn2)CC1)N1CCCn2c1nc1ccccc1c2=O`, the GI50 in [1], in test [2], in test [3], in [4], in test [5] and in test [6] was > 100 µM (inactive) throughout. In addition, the GI50 in test [7], in test [8], in test [9], in [10], in [11] and in [12] was > 100 µM (inactive) throughout. The GI50 in test [13], in [14], in test [15], in test [16], in test [17] and in test [18] was > 100 µM (inactive) throughout. Moreover, the GI50 in [19] and in [20] was > 100 µM (inactive) each time.
